The record followed here is US5741811A, “Polythiophene anti-tumor agents” (Purdue Research Foundation, priority 1996, dated 1998).

By GI50 is commonly meant the concentration giving 50% growth inhibition.

For series [1] the following is noted: water.
A further series has as its system LOX IMVI melanoma cells. Nature of the series: NCI human tumor cell line panel growth inhibition. The format is cell-based. The note with it: read-out: Log10 GI50 (converted).
A further series relates to UACC-62 melanoma cells. Nature of the series: NCI human tumor cell line panel growth inhibition. The format is cell-based. The note with it: Homo sapiens, read-out: Log10 GI50 (converted).
The subject of series [2] is RXF-393 renal cancer cells. Briefly: NCI human tumor cell line panel growth inhibition. The note with it: Homo sapiens, read-out: Log10 GI50 (converted). In kind it is cell-based.
Another series relates to ACHN renal cancer cells. Briefly: NCI human tumor cell line panel growth inhibition. The format is cell-based. The note with it: read-out: Log10 GI50 (converted).
The subject of series [3] is OVCAR-3 ovarian cancer cells. Nature of the series: NCI human tumor cell line panel growth inhibition. The note with it: Homo sapiens; OVCAR-3, ovarian cancer; read-out: Log10 GI50 (converted). In kind it is cell-based.
The subject of series [4] is NCI-H460 lung cancer cells. Briefly: NCI human tumor cell line panel growth inhibition. The format is cell-based. The note with it: Homo sapiens, read-out: Log10 GI50 (converted).
Another series deals with U251 CNS cancer cells. Briefly: NCI human tumor cell line panel growth inhibition. The note with it: Homo sapiens, U-251, read-out: Log10 GI50 (converted). In kind it is cell-based.
The subject of a further series is HT29 colon cancer cells. Nature of the series: NCI human tumor cell line panel growth inhibition. In kind it is cell-based. The note with it: Homo sapiens, HT-29, read-out: Log10 GI50 (converted).
Series [5] relates to HCT-116 colon cancer cells. Nature of the series: NCI human tumor cell line panel growth inhibition. The format is cell-based. As to conditions: Homo sapiens, read-out: Log10 GI50 (converted).
The test system of a further series is SF-295 CNS cancer cells. Briefly: NCI human tumor cell line panel growth inhibition. The format is cell-based. As to conditions: read-out: Log10 GI50 (converted).
Series [6] concerns NCI-H226 lung cancer cells. Briefly: NCI human tumor cell line panel growth inhibition. In kind it is cell-based. The note with it: Homo sapiens, read-out: Log10 GI50 (converted).
The next series relates to SK-MEL-2 melanoma cells. Nature of the series: NCI human tumor cell line panel growth inhibition. In kind it is cell-based. The note with it: read-out: Log10 GI50 (converted).
For the next series, the system named is M-14 melanoma cells. Briefly: NCI human tumor cell line panel growth inhibition. The format is cell-based. As to conditions: M14, read-out: Log10 GI50 (converted).
The subject of a further series is SNB-75 CNS cancer cells. Nature of the series: NCI human tumor cell line panel growth inhibition. In kind it is cell-based. The note with it: Homo sapiens, read-out: Log10 GI50 (converted).
Series [7] deals with CAKI-1 renal cancer cells. Briefly: NCI human tumor cell line panel growth inhibition. The format is cell-based. As to conditions: Homo sapiens; CAKI-1, renal cancer; read-out: Log10 GI50 (converted).
Another series has as its system HOP-92 lung cancer cells. Briefly: NCI human tumor cell line panel growth inhibition. The note with it: Homo sapiens, read-out: Log10 GI50 (converted). In kind it is cell-based. The procedure, abridged:
(§1)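 Cytotoxicity across the sixty-cell-line human tumor panel was determined by microculture assay with either MTT or SRB read-out. MTT: formazan from mitochondrial dehydrogenase of live cells after 6 days drug exposure, read at 570 nm. SRB: total cellular protein stained after 2 days exposure, read at 564 nm.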

The test system of series [8] is MDA-MB-435 breast cancer cells. Nature of the series: NCI human tumor cell line panel growth inhibition. In kind it is cell-based. The note with it: read-out: Log10 GI50 (converted). The procedure, abridged: as §1
For series [9], the system named is MDA-MB-231/ATCC breast cancer cells. Briefly: NCI human tumor cell line panel growth inhibition. In kind it is cell-based. As to conditions: read-out: Log10 GI50 (converted). The procedure, abridged: as §1
For series [10], the system named is HS 578T breast cancer cells. Briefly: NCI human tumor cell line panel growth inhibition. The format is cell-based. The note with it: read-out: Log10 GI50 (converted). The procedure, abridged:
as §1

For the next series, the system named is MCF7 breast cancer cells. Nature of the series: NCI human tumor cell line panel growth inhibition. The format is cell-based. As to conditions: read-out: Log10 GI50 (converted). The procedure, abridged:
as §1

For another series, the system named is SK-MEL-5 melanoma cells. Briefly: NCI human tumor cell line panel growth inhibition. The format is cell-based. As to conditions: read-out: Log10 GI50 (converted). The procedure, abridged: as §1
Another series has as its system SK-MEL-28 melanoma cells. Nature of the series: NCI human tumor cell line panel growth inhibition. The format is cell-based. As to conditions: read-out: Log10 GI50 (converted). The gist of the method:
as §1

Series [11] has as its system DU-145 prostate cancer cells. Briefly: NCI human tumor cell line panel growth inhibition. The note with it: read-out: Log10 GI50 (converted). In kind it is cell-based. The procedure, abridged: as §1
Series [12] concerns OVCAR-4 ovarian cancer cells. Briefly: NCI human tumor cell line panel growth inhibition. In kind it is cell-based. As to conditions: Homo sapiens, read-out: Log10 GI50 (converted). The procedure, abridged:
as §1

In series [13] the test system is MCF7/ADR-RES breast cancer cells. Briefly: NCI human tumor cell line panel growth inhibition. In kind it is cell-based. The note with it: read-out: Log10 GI50 (converted). The procedure, abridged: as §1
Series [14] deals with MDA-N breast cancer cells. Briefly: NCI human tumor cell line panel growth inhibition. The format is cell-based. As to conditions: read-out: Log10 GI50 (converted). The procedure, abridged: as §1
For series [15], the system named is BT-549 breast cancer cells. Nature of the series: NCI human tumor cell line panel growth inhibition. The format is cell-based. As to conditions: read-out: Log10 GI50 (converted). The gist of the method:
as §1

Another series deals with KM12 colon cancer cells. Briefly: NCI human tumor cell line panel growth inhibition. The format is cell-based. As to conditions: Homo sapiens, read-out: Log10 GI50 (converted). The procedure, abridged: as §1
For a further series, the system named is SF-539 CNS cancer cells. Briefly: NCI human tumor cell line panel growth inhibition. The format is cell-based. As to conditions: read-out: Log10 GI50 (converted). The procedure, abridged: as §1
In series [16] the test system is PC-3 prostate cancer cells. Nature of the series: NCI human tumor cell line panel growth inhibition. The note with it: read-out: Log10 GI50 (converted). The format is cell-based. The gist of the method: as §1
The test system of series [17] is IGROV-1 ovarian cancer cells. Briefly: NCI human tumor cell line panel growth inhibition. The format is cell-based. The note with it: Homo sapiens, read-out: Log10 GI50 (converted).
Series [18] concerns NCI-H322M lung cancer cells. Briefly: NCI human tumor cell line panel growth inhibition. As to conditions: Homo sapiens, read-out: Log10 GI50 (converted). In kind it is cell-based.
The next series deals with UACC-257 melanoma cells. Briefly: NCI human tumor cell line panel growth inhibition. The note with it: Homo sapiens, read-out: Log10 GI50 (converted). The format is cell-based.
In a further series the test system is SNB-19 CNS cancer cells. Nature of the series: NCI human tumor cell line panel growth inhibition. In kind it is cell-based. As to conditions: Homo sapiens, read-out: Log10 GI50 (converted).
The subject of series [19] is HCT-15 colon cancer cells. Nature of the series: NCI human tumor cell line panel growth inhibition. The format is cell-based. The note with it: Homo sapiens, read-out: Log10 GI50 (converted).
The test system of series [20] is COLO-205 colon cancer cells. Nature of the series: NCI human tumor cell line panel growth inhibition. The format is cell-based. The note with it: Homo sapiens; COLO-205, colon cancer; read-out: Log10 GI50 (converted).
Series [21] concerns NCI-H23 lung cancer cells. Briefly: NCI human tumor cell line panel growth inhibition. The format is cell-based. As to conditions: read-out: Log10 GI50 (converted).
For series [22], the system named is T-47D breast cancer cells. Briefly: NCI human tumor cell line panel growth inhibition. The note with it: T47D, read-out: Log10 GI50 (converted). In kind it is cell-based.
Experimental: The assay was carried out in 96-well microtiter plates. The MTT assay is based on the production of a dark blue formazan product by dehydrogenase in the mitochondria of live tumor cells after exposure to drug for 6 days [M. C. […] The SRB assay is based on the binding of the anionic group to the basic amino acid residues of cellular proteins after exposure of tumor cells to drug for 2 days [P. Skehan, R. Storeng, D. Scudiero, A. Monks, J. McMahon, D. Vistica, J. T. Warren, H. Bohesch, S. Kenney and M. R. Boyd, J. Nat.
In series [23] the test system is OVCAR-5 ovarian cancer cells. Nature of the series: NCI human tumor cell line panel growth inhibition. The format is cell-based. The note with it: Homo sapiens, read-out: Log10 GI50 (converted).
The subject of series [24] is OVCAR-8 ovarian cancer cells. Nature of the series: NCI human tumor cell line panel growth inhibition. In kind it is cell-based. As to conditions: Homo sapiens, read-out: Log10 GI50 (converted). The procedure, abridged:
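Cytotoxicity was measured in microculture using either MTT, with formazan read at 570 nm after 6 days of drug exposure, or SRB protein staining read at 564 nm after 2 days of exposure.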

A further series relates to MALME-3M melanoma cells. Nature of the series: NCI human tumor cell line panel growth inhibition. The format is cell-based. The note with it: read-out: Log10 GI50 (converted).
The subject of a further series is TK-10 renal cancer cells. Nature of the series: NCI human tumor cell line panel growth inhibition. The format is cell-based. The note with it: Homo sapiens, read-out: Log10 GI50 (converted).
For another series, the system named is SF-268 CNS cancer cells. Nature of the series: NCI human tumor cell line panel growth inhibition. The format is cell-based. The note with it: read-out: Log10 GI50 (converted).
A further series relates to A-498 renal cancer cells. Nature of the series: NCI human tumor cell line panel growth inhibition. In kind it is cell-based. The note with it: Homo sapiens, A498, read-out: Log10 GI50 (converted).
The test system of series [25] is HCC-2998 colon cancer cells. Nature of the series: NCI human tumor cell line panel growth inhibition. The format is cell-based. As to conditions: Homo sapiens, read-out: Log10 GI50 (converted).

Molecules are shown by their SMILES.

In the case of `NCc1ccc(-c2ccc(-c3cccs3)s2)s1` [NSC Code 652866, aminomethylterthiophene], the “aminomethylterthiophene dissolved by 1 mL of H2O (as cyclodextrin complex)” value in series [1] is “up to 77 mg”.

Turning to `OCc1csc(-c2ccc(-c3ccc(CO)s3)s2)c1` [drawing 38], the concentration for 50% growth inhibition (GI50) in the series with LOX IMVI melanoma cells is greater than 10 µM; with UACC-62 melanoma cells, 0.182 µM; in [2], greater than 10 µM; in the series with ACHN renal cancer cells, greater than 10 µM; in series [3], 0.0692 µM; in series [4] it was 0.0389 µM. Besides, the GI50 with U251 CNS cancer cells was 5.62 µM; in the series on HT29 colon cancer cells it was 0.234 µM; in series [5], 0.107 µM; with SF-295 CNS cancer cells, greater than 10 µM; in [6], 0.0141 µM; in the series on SK-MEL-2 melanoma cells it was greater than 10 µM. For the same compound, the GI50 is greater than 10 µM with M-14 melanoma cells; 2 µM with SNB-75 CNS cancer cells; 0.0251 µM in series [7]; 9.33 µM in the series on HOP-92 lung cancer cells; 4.37 µM in series [8]; greater than 10 µM in series [9]. The concentration for 50% growth inhibition (GI50) was 7.76 µM in [10]; 0.138 µM in the series with MCF7 breast cancer cells; greater than 10 µM in the series on SK-MEL-5 melanoma cells; greater than 10 µM in the series with SK-MEL-28 melanoma cells; greater than 10 µM in series [11]; 0.302 µM in series [12]. For the same compound, the concentration for 50% growth inhibition (GI50) in [13] is greater than 10 µM; in series [14], 9.55 µM; in series [15], greater than 10 µM; with KM12 colon cancer cells, greater than 10 µM; in the series with SF-539 CNS cancer cells, greater than 10 µM; in series [16] it was greater than 10 µM. In addition, the GI50 was 0.145 µM in [17]; 4.27 µM in series [18]; 0.038 µM in the series with UACC-257 melanoma cells; greater than 10 µM in the series with SNB-19 CNS cancer cells; greater than 10 µM in [19]; 0.191 µM in series [20]. Further, the concentration for 50% growth inhibition (GI50) in series [21] was greater than 10 µM; in series [22], 0.224 µM; in series [23] it was 0.126 µM; in [24], greater than 10 µM; with MALME-3M melanoma cells it was greater than 10 µM; in the series on TK-10 renal cancer cells it was 0.0794 µM. In addition, the 50% growth inhibitory concentration (GI50) was greater than 10 µM in the series with SF-268 CNS cancer cells, 0.0158 µM in the series with A-498 renal cancer cells and 5.89 µM in series [25].
